Reference: patent US20090239926A1, “METHODS FOR THE TREATMENT OF PSORIASIS OR PSORIATIC ARTHRITIS USING CYCLOPROPYL-N-CARBOXAMIDE” (priority 2008, published 2009)
Where “and” joins values, the source holds several entries; their conditions need not be identical. Equal entries are not always repeated.

What was measured:
[1] = system: mAB/LPS-induced experimental arthritis in male BALB/c mice; experiment: mAb/LPS-induced mice arthritis model; format: in vivo
Description: Treatment Regimen: Compound A was administered by oral gavage (PO), using a suitable stainless steel feeding needle. Enbrel (Reference Item) was administrated by intraperitoneal (IP) injections. Compound A was first administered on study Day 3 (one hour prior to the single LPS injection) and thereafter on Days 4, 5, 6, 7, 8, 9, 10, 11, 12 and 13 (total of 11 successive treatment days) at 1, 5 and 25 mg/kg once daily. Compound A treated groups comprised n=8 BALB/c male mice per dosing group. In addition, two equally sized groups were treated with either Enbrel (5 mg/kg/day, Reference Item), or a solution of 0.5% Na CMC/0.25% Tween 80 (PO, 5 ml/kg, Vehicle Control).
Arthritis Reactions: Both hind paws (left and right) of each animal were examined for signs of arthritogenic responses prior to arthritis induction (Day 0) and thereafter on study days 4, 5, 6, 7, 9, 11 & 14 as selected by the Sponsor. Arthritis reactions were scored and recorded according to a 0-4 scale in ascending order of severity (based on Morwell MD Biosciences Inc. brochure) as shown in Table 1.
Measurements of Experimental Arthritis: Hind paw thickness was determined on eight days using a Mitutoyo Electronic Digital Caliper (on Days 0, 4, 5, 6, 7, 9, 11 and 14) and presented as mean group values of the average for both left and right hind paws.

[2] = system: Lymph node cells (LNC); experiment: Lymph node cells of collagen-immunized mice stimulated in vitro with type II collagen or anti-CD3 mAb; format: cell-based; conditions: FIG. 6
Text: Ex Vivo Procedure: Mice were bled and lymph nodes were excised. Lymph node cells (LNC) were stimulated in vitro with antigen (type II collagen) or mitogen (anti-CD3 mAb) in the presence of Compound A.

[3] = target: T1, PDE5 from human platelets (Homo sapiens, UniProt O76074); experiment: Specificity: PDE5; format: biochemical
T1 construct: PDE3 and PDE5 from human platelets; from tissue; host or cells: human platelets
Description: The specificity of Compound A for PDE4 was assessed by testing at a single concentration (10 μM) against bovine PDE1, human PDE2, PDE3 and PDE5 from human platelets, and PDE6 from bovine retinal rod outer segments.

[4] = system: fMLF-induced neutrophil LTB4 production; experiment: fMLF-induced neutrophil LTB4 production; format: cell-based; conditions: Homo sapiens, 0.5 h, 1 μM fMLP, 30 minutes
Description: Formyl-Met-Leu-Phe (fMLP, Sigma) is a bacterially derived peptide that activates neutrophils to rapidly degranulate, migrate, and adhere to endothelial cells. Among the contents of the neutrophil granule is leukotriene B4 (LTB4), a product of arachidonic acid metabolism and itself a neutrophil stimulant. Compound A was tested for the ability to block fMLF-induced neutrophil LTB4 production.
Human neutrophils were isolated from human leukocyte units by dextran sedimentation as described in Coligan, J. E., et al., Current Protocols in Immunology, ed. R. Coico. Vol. 2. 2002: 2-3. The neutrophils were resuspended in phosphate-buffered saline without calcium or magnesium (BioWhittaker) containing 10 mM HEPES pH 7.2 and plated in 96-well tissue culture plates at a concentration of 1.7×10^6 cells/well. Cells were treated with 50 μM thimerosal (Sigma)/1 mM CaCl2/1 mM MgCl2 for 15 minutes at 37° C. 5% CO2, then treated with Compound A in a final DMSO concentration of 0.01% in duplicate for 10 minutes. Neutrophils were stimulated with 1 μM fMLP for 30 minutes, then lysed by the addition of methanol (20% final concentration) and frozen in a dry ice/isopropanol bath for 10 minutes. Lysates were stored at −70° C. until the LTB4 content was measured by competitive LTB4 ELISA (R&D systems).

[5] = Compound A 1 mg/kg/day PO, Day 0 (prior to arthritis induction)
[6] = Compound A 1 mg/kg/day PO, Day 4
[7] = Compound A 1 mg/kg/day PO, Day 5
[8] = Compound A 1 mg/kg/day PO, Day 6
[9] = Compound A 1 mg/kg/day PO, Day 7
[10] = Compound A 1 mg/kg/day PO, Day 9
[11] = Compound A 1 mg/kg/day PO, Day 11
[12] = Compound A 1 mg/kg/day PO, Day 14
[13] = Compound A 5 mg/kg/day PO, Day 0 (prior to arthritis induction)
[14] = Compound A 5 mg/kg/day PO, Day 4
[15] = Compound A 5 mg/kg/day PO, Day 5
[16] = Compound A 5 mg/kg/day PO, Day 6
[17] = Compound A 5 mg/kg/day PO, Day 7
[18] = Compound A 5 mg/kg/day PO, Day 9
[19] = Compound A 5 mg/kg/day PO, Day 11
[20] = Compound A 5 mg/kg/day PO, Day 14
[21] = Compound A 25 mg/kg/day PO, Day 0 (prior to arthritis induction)
[22] = Compound A 25 mg/kg/day PO, Day 4
[23] = Compound A 25 mg/kg/day PO, Day 5
[24] = Compound A 25 mg/kg/day PO, Day 6
[25] = Compound A 25 mg/kg/day PO, Day 7

inhibition at 10 µM [3]: -7%
IC50 [4]: 10 nM and 0.0047 µg/mL
Compound: CCOc1cc([C@@H](CS(C)(=O)=O)N2Cc3cccc(NC(=O)C4CC4)c3C2=O)ccc1OC [Compound A, cyclopropyl-N-{2-[(1S)-1-(3-ethoxy-4-methoxyphenyl)-2-(methylsulfonyl)ethyl]-3-oxoisoindoline-4-yl}carboxamide]
Arthritis Scoring, mean of both hind paws (0-4 scale) [1, 5]: 0
Hind Paws Thickness, group mean [1, 5]: 2.2 mm
Arthritis Scoring, mean of both hind paws (0-4 scale) [1, 6]: 0
Hind Paws Thickness, group mean [1, 6]: 2.2 mm
Percentage Change in Hind Paw Thickness vs. Study Commencement (Day 0), group mean [1, 6]: 1%
Arthritis Scoring, mean of both hind paws (0-4 scale) [1, 7]: 1
Hind Paws Thickness, group mean [1, 7]: 2.4 mm
Percentage Change in Hind Paw Thickness vs. Study Commencement (Day 0), group mean [1, 7]: 8%
Arthritis Scoring, mean of both hind paws (0-4 scale) [1, 8]: 2
Hind Paws Thickness, group mean [1, 8]: 2.7 mm
Percentage Change in Hind Paw Thickness vs. Study Commencement (Day 0), group mean [1, 8]: 24%
Arthritis Scoring, mean of both hind paws (0-4 scale) [1, 9]: 2
Hind Paws Thickness, group mean [1, 9]: 2.8 mm
Percentage Change in Hind Paw Thickness vs. Study Commencement (Day 0), group mean [1, 9]: 27%
Arthritis Scoring, mean of both hind paws (0-4 scale) [1, 10]: 2
Hind Paws Thickness, group mean [1, 10]: 2.7 mm
Percentage Change in Hind Paw Thickness vs. Study Commencement (Day 0), group mean [1, 10]: 23%
Arthritis Scoring, mean of both hind paws (0-4 scale) [1, 11]: 1
Percentage Change in Hind Paw Thickness vs. Study Commencement (Day 0), group mean [1, 11]: 13%
Arthritis Scoring, mean of both hind paws (0-4 scale) [1, 12]: 1
Hind Paws Thickness, group mean [1, 12]: 2.4 mm
Percentage Change in Hind Paw Thickness vs. Study Commencement (Day 0), group mean [1, 12]: 7%
Arthritis Scoring, mean of both hind paws (0-4 scale) [1, 13]: 0
Hind Paws Thickness, group mean [1, 13]: 2.2 mm
Arthritis Scoring, mean of both hind paws (0-4 scale) [1, 14]: 0
Hind Paws Thickness, group mean [1, 14]: 2.2 mm
Percentage Change in Hind Paw Thickness vs. Study Commencement (Day 0), group mean [1, 14]: 1%
Arthritis Scoring, mean of both hind paws (0-4 scale) [1, 15]: 1
Hind Paws Thickness, group mean [1, 15]: 2.5 mm
Percentage Change in Hind Paw Thickness vs. Study Commencement (Day 0), group mean [1, 15]: 12%
Arthritis Scoring, mean of both hind paws (0-4 scale) [1, 16]: 2
Hind Paws Thickness, group mean [1, 16]: 2.8 mm
Percentage Change in Hind Paw Thickness vs. Study Commencement (Day 0), group mean [1, 16]: 30%
Arthritis Scoring, mean of both hind paws (0-4 scale) [1, 17]: 2
Hind Paws Thickness, group mean [1, 17]: 2.8 mm
Percentage Change in Hind Paw Thickness vs. Study Commencement (Day 0), group mean [1, 17]: 30%
Arthritis Scoring, mean of both hind paws (0-4 scale) [1, 18]: 2
Hind Paws Thickness, group mean [1, 18]: 2.7 mm
Percentage Change in Hind Paw Thickness vs. Study Commencement (Day 0), group mean [1, 18]: 21%
Arthritis Scoring, mean of both hind paws (0-4 scale) [1, 19]: 1
Percentage Change in Hind Paw Thickness vs. Study Commencement (Day 0), group mean [1, 19]: 15%
Arthritis Scoring, mean of both hind paws (0-4 scale) [1, 20]: 1
Hind Paws Thickness, group mean [1, 20]: 2.5 mm
Percentage Change in Hind Paw Thickness vs. Study Commencement (Day 0), group mean [1, 20]: 13%
Arthritis Scoring, mean of both hind paws (0-4 scale) [1, 21]: 0
Hind Paws Thickness, group mean [1, 21]: 2.2 mm
Arthritis Scoring, mean of both hind paws (0-4 scale) [1, 22]: 0
Hind Paws Thickness, group mean [1, 22]: 2.2 mm
Percentage Change in Hind Paw Thickness vs. Study Commencement (Day 0), group mean [1, 22]: 0%
Arthritis Scoring, mean of both hind paws (0-4 scale) [1, 23]: 1
Hind Paws Thickness, group mean [1, 23]: 2.4 mm
Percentage Change in Hind Paw Thickness vs. Study Commencement (Day 0), group mean [1, 23]: 8%
Arthritis Scoring, mean of both hind paws (0-4 scale) [1, 24]: 2
Hind Paws Thickness, group mean [1, 24]: 2.7 mm
Percentage Change in Hind Paw Thickness vs. Study Commencement (Day 0), group mean [1, 24]: 21%
Arthritis Scoring, mean of both hind paws (0-4 scale) [1, 25]: 2
Hind Paws Thickness, group mean [1, 25]: 2.7 mm
Percentage Change in Hind Paw Thickness vs. Study Commencement (Day 0), group mean [1, 25]: 21%
Arthritis Scoring, mean of both hind paws (0-4 scale) ([1]; Compound A 25 mg/kg/day PO, Day 11): 1
production of the Th2 cytokine IL-5 [2]: unaffected
IFN-γ production ([2]; dose-dependent): inhibited
T cell proliferation ([2]; dose-dependent): inhibited
TNF-α production ([2]; dose-dependent): inhibited
